According to US20230183219A1, “CONDENSED SUBSTITUTED HYDROPYRROLES AS ANTAGONISTS OF THE MUSCARINIC ACETYLCHOLINE RECEPTOR M4” (Vanderbilt University, priority 2020, published 2023):
Read-outs that look alike come from different tables or passages of the source.

Target: T1, Human M4 (Homo sapiens, UniProt P08173)
T1 construct: Human or rat M4 cDNA, along with the chimeric G protein Gqi5, were transfected into Chinese hamster ovary (CHO-K1) cells; expressed in transfected cells; host or cells: CHO-K1 (Chinese hamster ovary, ATCC), stably co-expressing Gqi5
T1 sequence (P08173 1-479): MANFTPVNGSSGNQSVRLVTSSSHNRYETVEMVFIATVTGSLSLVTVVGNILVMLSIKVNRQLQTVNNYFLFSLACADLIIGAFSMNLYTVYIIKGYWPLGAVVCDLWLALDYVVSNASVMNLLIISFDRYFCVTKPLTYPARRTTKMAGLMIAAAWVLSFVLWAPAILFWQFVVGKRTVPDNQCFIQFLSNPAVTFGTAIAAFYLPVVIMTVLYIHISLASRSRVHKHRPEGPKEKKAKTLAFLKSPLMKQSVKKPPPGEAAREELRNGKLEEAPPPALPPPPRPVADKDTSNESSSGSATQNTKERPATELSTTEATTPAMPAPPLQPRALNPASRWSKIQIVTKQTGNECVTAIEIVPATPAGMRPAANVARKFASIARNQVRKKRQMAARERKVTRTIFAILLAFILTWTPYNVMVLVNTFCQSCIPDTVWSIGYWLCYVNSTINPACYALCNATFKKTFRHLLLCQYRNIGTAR
Assay: mAChR M4 cell-based functional assay (calcium flux, decrease of EC80 acetylcholine response)
Details: for remaining activity at 30 µM: read-out: Human M4 Emin; for IC50: M4/Gqi5/CHO-K1 cells, decrease of response to EC80 acetylcholine
Method in brief: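 CHO-K1 cells stably co-expressing M4 and chimeric Gqi5, loaded with Fluo-4 AM; calcium flux read on FDSS. Compound added at 2 s, EC20 acetylcholine at 143 s, EC80 acetylcholine at 268 s. IC50 from concentration-dependent decrease of the EC80 response, four-parameter logistic fit; 10-point 1:3 titrations.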

| SMILES | remaining activity at 30 µM (% ACh maximum at 30 μM) [%] | IC50 [nM] | Human M4 Emin (% ACh maximum at 30 μM) [%] | remaining activity at 30 µM [%] |
| --- | --- | --- | --- | --- |
| Cc1c(-c2cc(C(F)(F)F)c(N[C@H]3C[C@@H]4CN(CC5CCOCC5)C[C@@H]4C3)nn2)ccc2nn(C)cc12 [Example 39, (3aR,5s,6aS)-N-(6-(2,4-dimethyl-2H-indazol-5-yl)-4-(trifluoromethyl)pyridazin-3-yl)-2-((tetrahydro-2H-pyran-4-yl)methyl)octahydro-cyclopenta[c]pyrrol-5-amine] | 2 | 2.1 | – | – |
| Fc1ccc(Cl)c(-c2nnc(N[C@H]3C[C@@H]4CN(CC5CCOCC5)C[C@@H]4C3)cc2C(F)(F)F)c1 [Example 10, (3aR,5s,6aS)-N-(6-(2-chloro-5-fluorophenyl)-5-(trifluoro-methyl)pyridazin-3-yl)-2-((tetrahydro-2H-pyran-4-yl)methyl)octahydro-cyclopenta[c]pyrrol-5-amine] | 3 | 2.06 | – | – |
| O=C1Cc2cc(-c3cc(C(F)(F)F)c(N[C@H]4C[C@@H]5CN(CC6CCOCC6)C[C@@H]5C4)nn3)ccc2N1 [Example 63, 5-(6-(((3aR,5s,6aS)-2-((tetrahydro-2H-pyran-4-yl)methyl)octahydro-cyclopenta[c]pyrrol-5-yl)amino)-5-(trifluoro-methyl)pyridazin-3-yl)indolin-2-one] | 3 | 95.6 | – | – |
| [2H]C([2H])(C1CCOCC1)N1C[C@H]2C[C@H](Nc3cc(C(F)(F)F)c(-c4cc(F)ccc4Cl)nn3)C[C@H]2C1 [Example 129, (3aR,5s,6aS)-N-(6-(2-chloro-5-fluorophenyl)-5-(trifluoro-methyl)pyridazin-3-yl)-2-((tetrahydro-2H-pyran-4-yl)methyl-d2)octahydrocyclopenta[c]pyrrol-5-amine] | 2 | 2.3 | – | – |
| COc1ccc(-c2cc(C(F)(F)F)c(N[C@H]3C[C@@H]4CN(CC5CCOCC5)C[C@@H]4C3)nn2)c(F)c1F [Example 62, (3aR,5s,6aS)-N-(6-(2,3-difluoro-4-methoxyphenyl)-4-(trifluoromethyl)pyridazin-3-yl)-2-((tetrahydro-2H-pyran-4-yl)methyl)octahydro-cyclopenta[c]pyrrol-5-amine] | 3 | 258 | – | – |
| N#Cc1c(F)ccc(-c2cc(C(F)(F)F)c(N[C@H]3C[C@@H]4CN(CC5CCOCC5)C[C@@H]4C3)nn2)c1F [Example 55, 2,6-difluoro-3-(6-(((3aR,5s,6aS)-2-((tetrahydro-2H-pyran-4-yl)methyl)octahydro-cyclopenta[c]pyrrol-5-yl)amino)-5-(trifluoro-methyl)pyridazin-3-yl)benzonitrile] | 4 | 401 | – | – |
| Cn1cc2cc(-c3cc(C#N)c(N[C@H]4C[C@@H]5CN(CC6CCCOC6)C[C@@H]5C4)nn3)ccc2n1 (single isomer, unassigned) [Example 159] | – | 11.5 | 10 | – |
| [2H]C([2H])(C1CCOCC1)N1C[C@H]2C[C@H](Nc3nnc(-c4ccc5c(c4)OCC5)cc3C(F)(F)F)C[C@H]2C1 [Example 123, (3aR,5s,6aS)-N-(6-(2,3-dihydro-benzofuran-6-yl)-4-(trifluoro-methyl)pyridazin-3-yl)-2-((tetrahydro-2H-pyran-4-yl)methyl-d2)octahydro-cyclopenta[c]pyrrol-5-amine] | 3 | 55.3 | – | – |
| Cn1cc2cc(-c3cc(C(F)(F)F)c(N[C@H]4C[C@@H]5CN(C[C@@H]6CCOC6)C[C@@H]5C4)nn3)ccc2n1 [Example 32, (3aR,5s,6aS)-N-(6-(2-methyl-2H-indazol-5-yl)-4-(trifluoro-methyl)pyridazin-3-yl)-2-(((S)-tetrahydrofuran-3-yl)methyl)octahydro-cyclopenta[c]pyrrol-5-amine] | 6 | 162 | – | – |
| CCOc1cc(F)c(-c2cc(C(F)(F)F)c(N[C@H]3C[C@@H]4CN(CC5CCOCC5)C[C@@H]4C3)nn2)cc1F [Example 91, (3aR,5s,6aS)-N-(6-(4-ethoxy-2,5-difluorophenyl)-4-(trifluoromethyl)pyridazin-3-yl)-2-((tetrahydro-2H-pyran-4-yl)methyl)octahydro-cyclopenta[c]pyrrol-5-amine] | 3 | 280 | – | – |
| Cc1ccc(F)cc1-c1cc(C(F)(F)F)c(N[C@H]2C[C@@H]3CN(CC4CCOCC4)C[C@@H]3C2)nn1 [compound 11] | 4 | 2.41 | – | – |
| COc1ccc(F)cc1-c1cc(C(F)(F)F)c(N[C@H]2C[C@@H]3CN(CC4CCOCC4)C[C@@H]3C2)nn1 [Example 49, (3aR,5s,6aS)-N-(6-(5-fluoro-2-methoxyphenyl)-4-(trifluoromethyl)pyridazin-3-yl)-2-((tetrahydro-2H-pyran-4-yl)methyl)octahydro-cyclopenta[c]pyrrol-5-amine] | 3 | 94.3 | – | – |
| Cn1cc2cc(-c3cc(C#N)c(N[C@H]4C[C@@H]5CN(C[C@H]6CCOC6)C[C@@H]5C4)nn3)ccc2n1 [Example 155, 6-(2-methyl-2H-indazol-5-yl)-3-(((3aR,5s,6aS)-2-(((R)-tetrahydrofuran-3-yl)methyl)octahydro-cyclopenta[c]pyrrol-5-yl)amino)pyridazine-4-carbonitrile] | 5 | 103 | – | – |
| Fc1ccc(F)c(-c2cc(C(F)(F)F)c(N[C@H]3C[C@@H]4CN(Cc5ccccn5)C[C@@H]4C3)nn2)c1 [Example 48, (3aR,5s,6aS)-N-(6-(2,5-difluorophenyl)-4-(trifluoromethyl)pyridazin-3-yl)-2-(pyridin-2-ylmethyl)octahydro-cyclopenta[c]pyrrol-5-amine] | 3 | 615 | – | – |
| Cn1cc2cc(-c3cnc(N[C@H]4C[C@@H]5CN(CC6CCOCC6)C[C@@H]5C4)nc3)ccc2n1 [Example 12, (3aR,5s,6aS)-N-(5-(2-methyl-2H-indazol-5-yl)pyrimidin-2-yl)-2-((tetrahydro-2H-pyran-4-yl)methyl)octahydro-cyclopenta[c]pyrrol-5-amine] | – | 2750 | – | 10 |
| Cc1cnc(F)cc1-c1cc(C(F)(F)F)c(N[C@H]2C[C@@H]3CN(CC4CCOCC4)C[C@@H]3C2)nn1 [Example 113, (3aR,5s,6aS)-N-(6-(2-fluoro-5-methylpyridin-4-yl)-4-(trifluoromethyl)pyridazin-3-yl)-2-((tetrahydro-2H-pyran-4-yl)methyl)octahydro-cyclopenta[c]pyrrol-5-amine] | 3 | 6.1 | – | – |
| Cc1ccc(C(F)(F)F)cc1-c1cc(C(F)(F)F)c(N[C@H]2C[C@@H]3CN(CC4CCOCC4)C[C@@H]3C2)nn1 [Example 53, (3aR,5s,6aS)-N-(6-(2-methyl-5-(trifluoromethyl)phenyl)-4-(trifluoromethyl)pyridazin-3-yl)-2-((tetrahydro-2H-pyran-4-yl)methyl)octahydro-cyclopenta[c]pyrrol-5-amine] | 3 | 315 | – | – |
| Cc1ccc(C)c(-c2cc(C(F)(F)F)c(N[C@H]3C[C@@H]4CN(C[C@H]5COCCO5)C[C@@H]4C3)nn2)c1 [Example 72, (3aR,5s,6aS)-2-(((S)-1,4-dioxan-2-yl)methyl)-N-(6-(2,5-dimethylphenyl)-4-(trifluoromethyl)pyridazin-3-yl)octahydro-cyclopenta[c]pyrrol-5-amine] | 3 | 52.9 | – | – |
